Experimental findings from ChEMBL document CHEMBL1201862, “PubChem BioAssay data set” (2004) are described below.

Experiment [1] can be described thus: microbe, parasite or virus in culture. In kind it is functional. The note with it: Mycobacterium tuberculosis.
The target in experiment [2] is Paired box protein Pax-8 (Homo sapiens, UniProt Q06710). Nature of the experiment: inhibitors of PAX8-driven TPO luciferase reporter, dose response, RMG-I cells, cherry-pick (AID 687027).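 Also: luciferase reporter driven by Pax8 target thyroperoxidase promoter measured by SteadyGlo luminescence.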 In kind it is functional, cell-based. (In general: Reporter assays use an easily measured gene product as a stand-in for the process of interest.)
Paired box protein Pax-8, sequence (Q06710 whole entry): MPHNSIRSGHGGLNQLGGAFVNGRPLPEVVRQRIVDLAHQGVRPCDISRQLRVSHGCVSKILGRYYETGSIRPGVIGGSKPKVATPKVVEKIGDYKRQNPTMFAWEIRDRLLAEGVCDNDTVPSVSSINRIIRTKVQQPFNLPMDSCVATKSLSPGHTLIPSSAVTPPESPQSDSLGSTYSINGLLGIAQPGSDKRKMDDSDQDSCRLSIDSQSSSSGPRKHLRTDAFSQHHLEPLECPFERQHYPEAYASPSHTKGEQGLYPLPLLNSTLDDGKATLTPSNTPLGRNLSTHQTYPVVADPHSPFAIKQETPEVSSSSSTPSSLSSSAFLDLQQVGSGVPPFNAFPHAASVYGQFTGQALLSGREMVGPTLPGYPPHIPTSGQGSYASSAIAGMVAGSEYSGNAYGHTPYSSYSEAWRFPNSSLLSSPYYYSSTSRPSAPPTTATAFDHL
A short description of experiment [3]: Luminescence Cell-Based Dose Retest to Confirm Inhibitors of Cancer Stem Cells. [Related pubchem assays (depositor defined):AID2717, AID2721]. It is filed as functional. The note with it: Homo sapiens.
Experiment [4] has as its target T1, RNA-binding protein pos-1 (Caenorhabditis elegans, UniProt G5EF15).
T1 sequence (G5EF15 whole entry): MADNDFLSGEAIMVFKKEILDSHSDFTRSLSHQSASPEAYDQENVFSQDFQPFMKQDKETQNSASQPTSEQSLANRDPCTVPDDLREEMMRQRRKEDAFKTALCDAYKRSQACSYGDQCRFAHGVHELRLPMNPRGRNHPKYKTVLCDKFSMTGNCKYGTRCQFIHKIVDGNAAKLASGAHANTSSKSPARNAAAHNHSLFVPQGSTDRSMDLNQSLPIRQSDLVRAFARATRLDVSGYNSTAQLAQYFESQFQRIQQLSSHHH
Kind of experiment: inhibitors of POS-1/mex-3 RNA binding, dose response, biochemical, fluorescence polarization (AID 1964).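 Also: purified POS-1 fused to maltose binding protein made in E. coli; potency of compounds blocking POS-1 binding to fluorescent RNA.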

Experiment [5] deals with T2, Zinc finger protein mex-5 (Caenorhabditis elegans, UniProt Q9XUB2).
T2 sequence (Q9XUB2 whole entry): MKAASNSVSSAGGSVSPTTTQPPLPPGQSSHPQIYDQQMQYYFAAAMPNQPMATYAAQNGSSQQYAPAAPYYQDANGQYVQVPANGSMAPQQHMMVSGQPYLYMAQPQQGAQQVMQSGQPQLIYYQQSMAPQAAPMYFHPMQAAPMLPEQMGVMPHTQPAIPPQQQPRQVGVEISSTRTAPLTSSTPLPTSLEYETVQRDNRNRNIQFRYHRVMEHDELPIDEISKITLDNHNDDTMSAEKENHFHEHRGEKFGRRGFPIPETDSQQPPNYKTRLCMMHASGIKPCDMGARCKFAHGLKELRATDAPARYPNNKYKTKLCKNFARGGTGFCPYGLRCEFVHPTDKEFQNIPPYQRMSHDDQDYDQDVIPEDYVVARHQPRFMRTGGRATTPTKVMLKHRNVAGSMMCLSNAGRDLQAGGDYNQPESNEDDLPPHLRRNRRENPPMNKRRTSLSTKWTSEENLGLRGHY
Kind of experiment: MEX-5/TCR-2 RNA interaction inhibitors, dose response, biochemical, C. elegans, fluorescence polarization (AID 1960). In general terms: In fluorescence polarisation assays a small probe gives low polarisation when free and higher when bound to something large.

Experiment [6] addresses T3, Corticotropin-releasing factor receptor 2/Corticotropin-releasing factor-binding protein (Homo sapiens, UniProt P24387+Q13324).
T3 sequence (Q13324 whole entry): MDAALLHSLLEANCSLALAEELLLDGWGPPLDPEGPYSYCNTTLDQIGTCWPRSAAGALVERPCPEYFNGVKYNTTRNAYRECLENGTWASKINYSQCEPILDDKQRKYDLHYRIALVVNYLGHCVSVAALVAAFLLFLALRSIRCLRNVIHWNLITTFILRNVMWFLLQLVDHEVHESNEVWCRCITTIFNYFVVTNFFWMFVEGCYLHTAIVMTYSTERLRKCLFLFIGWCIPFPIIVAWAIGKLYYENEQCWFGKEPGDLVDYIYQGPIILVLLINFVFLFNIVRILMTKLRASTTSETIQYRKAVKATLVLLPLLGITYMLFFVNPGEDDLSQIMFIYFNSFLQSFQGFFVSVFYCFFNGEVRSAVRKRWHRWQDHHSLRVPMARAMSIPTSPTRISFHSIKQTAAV
T3 sequence (P24387 whole entry): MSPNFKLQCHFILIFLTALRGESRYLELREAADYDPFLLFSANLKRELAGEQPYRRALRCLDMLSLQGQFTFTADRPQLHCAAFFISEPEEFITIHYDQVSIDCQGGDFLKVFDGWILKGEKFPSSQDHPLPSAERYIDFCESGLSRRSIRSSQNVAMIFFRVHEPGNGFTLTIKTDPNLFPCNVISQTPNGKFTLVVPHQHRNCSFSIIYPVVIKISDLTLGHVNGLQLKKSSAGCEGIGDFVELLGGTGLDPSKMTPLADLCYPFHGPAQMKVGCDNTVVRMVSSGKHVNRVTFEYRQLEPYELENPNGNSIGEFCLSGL
Nature of the experiment: activators of CRF receptor 2 with binding protein – uHTS hits, confirmation (AID 602473). The note with it: read-out: EC50_Mean. In kind it is functional.

Experiment [7] concerns the target FAD-linked sulfhydryl oxidase ALR (Homo sapiens, UniProt P55789). Nature of the experiment: inhibitors of human ALR sulfhydryl oxidase, dose response, biochemical, H2O2 detection, luminescence, cherry-pick (AID 493248).
Experiment [8] addresses T4, Rac GTPase-activating protein 1 (Homo sapiens, UniProt Q9H0H5).
T4 sequence (Q9H0H5 whole entry): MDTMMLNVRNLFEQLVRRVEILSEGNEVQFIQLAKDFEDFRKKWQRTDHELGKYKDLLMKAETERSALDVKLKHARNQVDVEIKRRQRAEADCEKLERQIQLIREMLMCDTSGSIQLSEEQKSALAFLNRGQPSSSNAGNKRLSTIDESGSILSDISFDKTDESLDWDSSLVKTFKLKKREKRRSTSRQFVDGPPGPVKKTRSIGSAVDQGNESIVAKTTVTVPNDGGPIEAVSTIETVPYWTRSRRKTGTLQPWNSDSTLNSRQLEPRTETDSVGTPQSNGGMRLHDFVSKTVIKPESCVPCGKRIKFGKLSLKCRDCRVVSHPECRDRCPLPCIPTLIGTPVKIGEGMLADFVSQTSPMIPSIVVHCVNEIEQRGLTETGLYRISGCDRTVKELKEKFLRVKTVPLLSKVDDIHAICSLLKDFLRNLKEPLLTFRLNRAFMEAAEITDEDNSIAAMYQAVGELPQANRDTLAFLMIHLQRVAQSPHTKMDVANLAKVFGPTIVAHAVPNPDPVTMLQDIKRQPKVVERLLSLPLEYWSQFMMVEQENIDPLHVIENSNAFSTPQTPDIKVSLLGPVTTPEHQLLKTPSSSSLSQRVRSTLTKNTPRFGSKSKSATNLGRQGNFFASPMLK
Nature of the experiment: MgcRacGAP GTPase-activating activity inhibitors, confirmation, biochemical, ADP Hunter fluorescence, primary and confirmatory (AID 624330). In kind it is functional.

Experiment [9] deals with Cytochrome P450 2C9 (Homo sapiens, UniProt P11712).
Cytochrome P450 2C9, sequence (P11712 whole entry): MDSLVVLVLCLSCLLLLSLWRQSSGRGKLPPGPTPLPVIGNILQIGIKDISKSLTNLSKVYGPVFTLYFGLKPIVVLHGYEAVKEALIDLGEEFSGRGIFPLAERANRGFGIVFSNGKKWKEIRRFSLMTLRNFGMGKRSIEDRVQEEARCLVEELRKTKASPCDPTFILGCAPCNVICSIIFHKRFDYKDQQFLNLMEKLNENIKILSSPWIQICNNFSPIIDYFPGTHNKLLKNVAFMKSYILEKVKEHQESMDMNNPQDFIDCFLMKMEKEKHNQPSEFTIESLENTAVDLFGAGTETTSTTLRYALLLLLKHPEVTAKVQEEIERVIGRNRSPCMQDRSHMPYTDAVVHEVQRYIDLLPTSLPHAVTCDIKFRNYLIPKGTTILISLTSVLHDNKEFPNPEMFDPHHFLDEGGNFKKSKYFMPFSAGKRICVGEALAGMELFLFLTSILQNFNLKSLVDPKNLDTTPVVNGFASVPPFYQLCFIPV
Experiment [10] in a line: C. albicans growth with fluconazole, confirmation, fluorescence, retest (AID 2467). It is filed as functional, cell-based.
A short description of experiment [11]: NIH-3T3 fibroblast cytotoxicity, dose response, cytotoxicity control, cell-based, fluorescence, Alamar Blue, secondary assay (AID 2327).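 Also: NIH-3T3 mouse fibroblasts cultured with fluconazole at 8 µg/mL.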 It is filed as functional. A general note: Resazurin is reduced to fluorescent resorufin, in cell work by metabolically active cells.
Experiment [12] relates to INS1. Nature of the experiment: beta cell apoptosis inhibitors, cytokine rescue, dose response, luminescence, retest (AID 449756).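 Also: cell death triggered by IL-1 beta plus TNF-alpha plus IFN-gamma mixture; protective hits raise ATP signal compared with cytokine alone wells.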 It is filed as functional, cell-based. The note with it: Rattus norvegicus.

SMILES strings stand for the structures. Calls of active or inactive are those of the source.

FAD-linked sulfhydryl oxidase ALR, sequence (P55789 whole entry): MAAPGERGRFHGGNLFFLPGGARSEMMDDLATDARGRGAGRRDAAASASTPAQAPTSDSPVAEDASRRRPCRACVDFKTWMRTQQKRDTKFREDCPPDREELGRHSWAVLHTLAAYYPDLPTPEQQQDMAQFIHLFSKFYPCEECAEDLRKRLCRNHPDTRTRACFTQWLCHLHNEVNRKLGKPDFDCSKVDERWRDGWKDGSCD

For `CC(NC(=O)CCl)c1ccc(Cl)c(Cl)c1` (stereo unspecified), the CC50 in [1] was 8.91 µM (active).

For the molecule `O=C(COC(=O)c1ccco1)Nc1cccc(S(=O)(=O)N2CCOCC2)c1`, the AC50 (in general, the midpoint of the concentration-response curve, whichever way the signal moves) in experiment [2] was 62.1 µM (active).

In the case of `Cc1c(NC(=O)c2ccc([N+](=O)[O-])o2)cccc1-c1nc2ncccc2o1`, the CC50 in experiment [1] is > 40 µM (active). For the same molecule, the AC50 in experiment [3] was 4 µM (active).

For the molecule `COc1ccccc1NC(=O)/C(C#N)=C/c1cc([N+](=O)[O-])ccc1N1CCCC1`, the figures for the EC50 in experiment [4], in experiment [5] and in [6] were 7.27 µM (inconclusive), 4.59 µM (inconclusive) and 7.66 µM (active), respectively.

`Cc1noc(C)c1S(=O)(=O)NCCN1CCN(c2ccccc2)CC1`: the AC50 in experiment [7] was 3.33 µM (active).

`CCn1cc(C=C2C(=O)N(C)C(=O)N(C)C2=O)c2ccccc21`: the EC50 in [4] was > 300 µM (not active); in experiment [5], > 300 µM (inconclusive).

As for `O=C(CN1CCN(Cc2ccccc2)CC1)NC(c1ccccc1)c1ccccc1`, the IC50 (in general, the concentration that gives 50% inhibition) in experiment [8] was 77.1 µM (active).

With `COC(=O)c1ccc(-n2c(CCC(=O)O)ccc2-c2ccc(C)cc2)cc1`, the EC50 in experiment [4] and in experiment [5] was > 300 µM (not active) in each case.

Regarding `Nc1c(-c2ccccc2)cnn1-c1cccc([N+](=O)[O-])c1`, the figures for the AC50 in experiment [7] and in experiment [9] were 0.125 µM (active) and 28.2 µM (inconclusive), respectively.

As for `CN(C)c1ccc2c3c(ccc(N(C)C)c13)C(=O)OC2`, the AC50 in experiment [7] is 8.4 µM (active).

As to `CCN(CCNC(=O)C1CC(=O)N(CCc2ccccc2)C1)c1ccccc1` (stereo unspecified), the AC50 in experiment [7] was 0.288 µM (active).

In the case of `C[C@@H]1CN([C@@H](C)CO)C(=O)c2cc(NC(=O)Nc3ccc4c(c3)OCO4)ccc2O[C@@H]1CN(C)C(=O)Nc1ccc(C(F)(F)F)cc1`, in experiment [2], the AC50 was 11.1 µM (active).

For the molecule `Nc1[nH]c(N=NC(=O)c2ccc(F)cc2)c2ccccc12`, the AC50 in [7] was 0.24 µM (active).

With `c1ccc(NNC2=NCCCCC2)cc1`, the AC50 was 0.596 µM (active) in experiment [7] and 0.898 µM (active) in experiment [3].

As to `O=C(CNS(=O)(=O)c1ccc(Br)s1)NCC1COc2ccccc2O1` (stereo unspecified), the EC50 is > 38 µM (not active) in [10] and > 150 µM (inactive) in experiment [11].

For the molecule `Cc1ccc(/C=C2\C(=O)Nc3ccccc32)o1`, the CC50 in [1] is > 40 µM (active).

For the molecule `O=[N+]([O-])c1cccc(-c2nnc(S)n2-c2ccc(Br)cc2)c1`, in [7], the AC50 is 3.63 µM (active).

As to `Nc1nnc(C(=O)c2ccccc2N)s1`, the EC50 is 14.7 µM (active) in experiment [4] and 3.86 µM (active) in [5].

On to `COc1cc(/C=C/C(=O)OCC(=O)Nc2cc(S(=O)(=O)N3CCCCC3)ccc2C)ccc1O`, for which the IC50 in [8] was 68.1 µM (active).

`Brc1ccc(OCCCN2CCOCC2)cc1`: in experiment [8], the IC50 was 123 µM (active).

In the case of `COc1cc(OC)cc(C(=O)N2CCCC(Nc3ccc(F)cc3)C2)c1` (stereo unspecified), the AC50 in [7] was 1.97 µM (active).

As for `Cc1ccc(S(=O)(=O)N2CCC(=O)N(C(COCc3ccc(C(F)(F)F)cc3)Cc3ccccc3)CC2)cc1` (stereo unspecified), the EC50 in [6] was 4.81 µM (active).

In the case of `CCCn1c(NCc2ccc3c(c2)OCO3)nc2ccccc21`, in experiment [7], the half-maximal activity concentration (AC50) is 18.9 µM (active).

As to `C=CCN1C(=O)NC(=O)/C(=C/c2cc3c4c(c2)CCCN4CCC3)C1=O`, the AC50 in experiment [7] was 2.31 µM (active).

`Cc1ccc(S(=O)(=O)Nc2ccccc2F)cc1C(=O)NNC(=O)c1ccccc1O`: the EC50 in experiment [4] is 149 µM (inconclusive); in experiment [5], 1.75 µM (inconclusive).

On to `COc1ccc(C(=O)Nc2ccccc2C(=O)Nc2ccccc2C(=O)O)cc1`, for which the EC50 is 3.49 µM (active) in experiment [10] and > 160 µM (inactive) in experiment [11].

On to `CCN=C(S)Nc1cc2oc3ccccc3c2cc1OC`, for which the IC50 in experiment [8] is 99.9 µM (active).

For the molecule `Cc1cc(=O)oc(C)c1C(=O)Nc1ccc2ncccc2c1`, in experiment [6], the EC50 was 24.2 µM (active).

With `Cc1ccc(C2=NN=C(NC(=O)CSc3nncn3C)SC2)cc1`, in [8], the IC50 is 256 µM (active).

As to `COc1ccc(/C=C/C(=O)N(c2ccccn2)C2CCCCC2)cc1OC`, the EC50 in experiment [10] is > 38 µM (not active); in experiment [11], > 150 µM (inactive).

For `O=C(CCl)Nc1cccn2ncnc12`, the CC50 in [1] is 32.6 µM (active).

Take `CCn1c(CN2CCCCCC2=O)nnc1SCc1cnc(-c2ccccc2)s1`: the figures for the EC50 in [10] and in experiment [11] were 1.47 µM (active) and 68 µM (inconclusive), respectively.

Consider `CC(=O)c1c(C)nc(-c2cccc([N+](=O)[O-])c2)n1O`, for which the EC50 in [10] was 4.84 µM (active); in experiment [11], 69.2 µM (active).

As for `Sc1nc(-c2ccccc2)c[nH]1`, the AC50 in experiment [7] is 0.904 µM (active).

Consider `C[C@@H]1Cc2c(O)c(O)cc(O)c2C(=O)O1`, for which the figures for the EC50 in experiment [4] and in experiment [5] were 104 µM (active) and 13.5 µM (active), respectively.

Regarding `C[C@H]([C@@H](N)C(=O)N[C@@H](C(=O)O)[C@@H]1O[C@H](n2ccc(=O)[nH]c2=O)[C@@H](O)[C@H]1O)[C@@H](O)c1ccc(O)cn1`, the figures for the EC50 in experiment [10] and in experiment [11] were 3.67 µM (active) and > 150 µM (inactive), respectively.

`COc1ccccc1C1C(C(C)=O)=C(C)N=c2s/c(=C\c3cc(OC)c(OC)c(OC)c3)c(=O)n21` (stereo unspecified): the EC50 in [4] and in experiment [5] was > 300 µM (not active) each time.

Turning to `COc1ccc(CN2CCN(CCSc3ccc(C)cc3)CC2)c(OC)c1OC`, the IC50 in experiment [8] was 80 µM (active). For the same molecule, in experiment [12], the AC50 was > 260 µM (inactive).
